C1CC1N1C2C3N(C4CC4)C1C1N(C4CC4)C(C(N1C1CC1)N3C1CC1)N2C1CC1
solubility (mole fraction)
Conditions	278.15 K	283.15 K	288.15 K	293.15 K	298.15 K	303.15 K	308.15 K	313.15 K	318.15 K
in 1,1,2-trichloroethane	0.00866	0.00991	0.0113	0.0127	0.0143	0.0161	0.0182	0.0206	0.0234
in 1,2-dichloroethane	0.00228	0.00279	0.00343	0.00421	0.00513	0.00624	0.00752	0.00903	0.0108
in acetone	0.000269	0.000333	0.000411	0.000503	0.000611	0.000736	0.000875	0.00103	0.0012
in acetonitrile	5.71e-05	6.68e-05	7.76e-05	8.91e-05	0.000101	0.000114	0.000128	0.000143	0.000159
in chloroform	0.0231	0.0263	0.0297	0.0332	0.0367	0.0405	0.0444	–	–
in cyclohexane	–	0.00931	0.0111	0.0132	0.0157	0.0186	0.0218	0.0255	0.0297
in dichloromethane	0.0129	0.0147	0.0169	0.0194	0.0222	0.0255	0.0291	–	–
in ethanol	0.000225	0.000283	0.00036	0.000452	0.000557	0.000675	0.000805	0.000951	0.00111
in ethyl acetate	0.00121	0.0014	0.00168	0.00204	0.00249	0.00305	0.00373	0.00455	0.00552
in methanol	4.66e-05	7.71e-05	0.00011	0.000144	0.00018	0.000219	0.000259	0.0003	0.000341
in n-hexane	0.00406	0.00447	0.00507	0.00588	0.00692	0.00819	0.00973	0.0116	0.0138
in tetrachloromethane	0.0269	0.0298	0.0333	0.0372	0.0415	0.0461	0.0511	0.0568	0.0632
